{"source": "patent US20030191144A1", "about": "“Compounds, compositions and methods for modulating beta-amyloid production” (Active Pass Pharmaceuticals, Inc., priority 2001, published 2003)", "system": "Aβ42 production and/or release from SM-4 cells", "experiment": "Aβ42 ELISA of culture media from SM-4 cells", "assay_type": "cell-based", "conditions": "16 hrs", "description": "Cell Lines and Pharmacological Treatments. 293 EBNA cells (InVitrogen, Carlsbad, Calif.) stably transfected with Swedish mutant β-Amyloid Precursor Protein -695 (SM4 cells) were routinely maintained in DMEM supplemented with sodium pyruvate (1 mM) and 10% fetal bovine serum. Cells were seeded into poly-D-Lysine (SIGMA) coated 6-well plates at a density of 5-7×10^5 cells per well. Subsequently, the cells were rinsed in 1 ml of PBS and treated with 10-500 μM of pirinixic acid in serum-free/phenol red-free DMEM for 16 hours.\n(§1) Aβ Detection and Standardization. After the pharmacological treatment, the exposure media was collected and supplemented with 10% sample treatment buffer (40 mM sodium phosphate (pH 7.4), 40 mM triethanolamine, 0.1% Triton X-100, 200 mM NaCl, 2 mM EGTA, 0.1% Sodium azide), and assayed for either Aβ40 or Aβ42 by a calorimetric ELISA as per the manufacturer's protocol (Biosource International Inc, California). The cells were lysed in 0.1% Triton X-100 in PBS supplemented with 5 μM propridium iodide (Molecular Probes, Eugene, Oreg.) and incubated at 37° C. for 30 minutes prior to measuring fluorescence. Aβ40 and Aβ42 were standardized against propridium iodide fluorescence as a measure of total cell number. […]\nas §1, with “After” for “Aβ Detection and Standardization. After”\nAfter the pharmacological treatment, the exposure media was collected and supplemented with 10% sample treatment buffer (40 mM sodium phosphate (pH 7.4), 40 mM triethanolamine, 0.1% Triton X-100, 200 mM NaCl, 2 mM EGTA, 0.1% Sodium azide), and assayed for either Aβ40 or Aβ42 by a colorimetric ELISA as per the manufacturer's protocol (Biosource International Inc, California). The cells were lysed in 0.1% Triton X-100 in PBS supplemented with 5 μM propridium iodide (Molecular Probes, Eugene, Oreg.) and incubated at 37° C. for 30 minutes prior to measuring fluorescence. Aβ40 and Aβ42 were standardized against propridium iodide fluorescence as a measure of total cell number.", "data": [{"smiles": "Cc1cccc(Nc2cc(Cl)nc(SCC(=O)O)n2)c1C", "note": "[pirinixic acid]", "values": [{"measurement": "decrease in Aβ42", "setting": "50 μM, p<0.001", "value": 15, "unit": "%"}, {"measurement": "decrease in Aβ42", "setting": "500 μM", "value": 60, "unit": "%"}]}]}
